Experimental data from article PMC6555645 (Angewandte Chemie (International ed. in English), 2019).

Tests used:
Tar14 = biological target: T1, Tar14 (Saccharomonospora piscinae, UniProt W5VG40); assay: in vitro chlorination assay; format: biochemical; details: with flavin and a flavin reductase system; chloride
T1 sequence (W5VG40 1-534): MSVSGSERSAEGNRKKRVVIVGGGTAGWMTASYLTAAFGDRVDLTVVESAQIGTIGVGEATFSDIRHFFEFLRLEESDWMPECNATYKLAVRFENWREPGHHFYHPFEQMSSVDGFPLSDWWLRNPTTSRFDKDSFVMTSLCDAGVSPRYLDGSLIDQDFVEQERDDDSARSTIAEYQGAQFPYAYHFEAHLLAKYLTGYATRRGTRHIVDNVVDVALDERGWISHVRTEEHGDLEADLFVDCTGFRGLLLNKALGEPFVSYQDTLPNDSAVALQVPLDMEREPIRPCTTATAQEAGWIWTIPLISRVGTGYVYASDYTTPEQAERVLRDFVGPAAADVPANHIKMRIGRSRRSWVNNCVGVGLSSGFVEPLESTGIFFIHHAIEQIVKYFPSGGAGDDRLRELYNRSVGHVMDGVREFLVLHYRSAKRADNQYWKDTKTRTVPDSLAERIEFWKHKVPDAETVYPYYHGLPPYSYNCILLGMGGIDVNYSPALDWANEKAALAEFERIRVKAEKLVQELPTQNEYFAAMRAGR

Tar13 = biological target: T2, Tar13 (Saccharomonospora piscinae, UniProt W5VMS0); assay: in vitro dioxygenase assay; format: biochemical; details: heme-dependent TDO; O2
T2 sequence (W5VMS0 1-236): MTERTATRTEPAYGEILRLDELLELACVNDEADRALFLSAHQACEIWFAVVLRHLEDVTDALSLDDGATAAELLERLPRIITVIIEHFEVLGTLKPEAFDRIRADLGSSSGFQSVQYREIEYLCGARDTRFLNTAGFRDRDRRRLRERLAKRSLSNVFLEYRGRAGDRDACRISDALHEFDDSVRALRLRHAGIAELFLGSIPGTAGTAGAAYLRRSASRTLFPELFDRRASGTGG

| Km (Tar14) [µM] | Km (Tar13) [µM] | SMILES |
| --- | --- | --- |
| 12 |  | N[C@@H](Cc1c[nH]c2ccccc12)C(=O)O [compound 4, L-Trp] |
|  | 112 | N[C@@H](Cc1c[nH]c2cc(Cl)ccc12)C(=O)O [compound 7, L-6-Cl-Trp] |
